Literature values, collected in paper PMC5074076, “Novel minimal physiologically-based model for the prediction of passive tubular reabsorption and renal excretion clearance” (European Journal of Pharmaceutical Sciences, 2016).

Details: healthy subjects; plasma and urine data from same subjects; normalised for subject weight and body surface area where necessary; ref Table S2.1; cited from earlier work

## CN1CCN(c2c(F)cc3c(=O)c(C(=O)O)cn(CCF)c3c2F)CC1 [Fleroxacin]
  Overall weighted mean CLR: 67.5 mL/min

## CN/C(=N/CCSCc1nc[nH]c1C)NC#N [Cimetidine]
  Overall weighted mean CLR: 417.0 mL/min

## CNCCCN1c2ccccc2CCc2ccccc21 [Desipramine]
  Overall weighted mean CLR: 28.6 mL/min

## CCn1cc(C(=O)O)c(=O)c2cc(F)c(N3CCNCC3)nc21 [Enoxacin]
  Overall weighted mean CLR: 256.7 mL/min

## CCS(=O)(=O)CCn1c([N+](=O)[O-])cnc1C [Tinidazole]
  Overall weighted mean CLR: 11.3 mL/min

## CO/N=C(\C(=O)N[C@@H]1C(=O)N2C(C(=O)O)=C(CSc3nc(C)c(CC(=O)O)s3)CS[C@H]12)c1csc(N)n1 [Cefodizime]
  Overall weighted mean CLR: 29.1 mL/min

## CC1(C)S[C@@H]2[C@H](NC(=O)Cc3ccccc3)C(=O)N2[C@H]1C(=O)O [Benzylpenicillin]
  Overall weighted mean CLR: 316.8 mL/min

## N[C@@H](CC(=O)N1CCn2c(nnc2C(F)(F)F)C1)Cc1cc(F)c(F)cc1F [Sitagliptin]
  Overall weighted mean CLR: 371.2 mL/min

## Cn1nnnc1SCC1=C(C(=O)O)N2C(=O)[C@@H](NC(=O)[C@H](O)c3ccccc3)[C@H]2SC1 [Cefamandole]
  Overall weighted mean CLR: 162.3 mL/min

## CO/N=C(\C(=O)N[C@@H]1C(=O)N2C(C(=O)O)=CCS[C@H]12)c1csc(N)n1 [Ceftizoxime]
  Overall weighted mean CLR: 102.2 mL/min

## NC12CC3CC(CC(C3)C1)C2 [Amantadine]
  Overall weighted mean CLR: 219.2 mL/min

## NCc1ccccc1CC(=O)N[C@@H]1C(=O)N2C(C(=O)O)=C(CSc3nnnn3CC(=O)O)CS[C@H]12 [Ceforanide]
  Overall weighted mean CLR: 46.8 mL/min

## CC(=O)N[C@H]1[C@H]([C@H](O)[C@H](O)CO)OC(C(=O)O)=C[C@@H]1N=C(N)N [Zanamivir]
  Overall weighted mean CLR: 89.1 mL/min

## Nc1cccc2c1CN(C1CCC(=O)NC1=O)C2=O (centres unmarked) [Lenalidomide]
  Overall weighted mean CLR: 190.4 mL/min

## Nc1nnc(-c2cccc(Cl)c2Cl)c(N)n1 [Lamotrigine]
  Overall weighted mean CLR: 2.5 mL/min

## NS(=O)(=O)c1cc(C2(O)NC(=O)c3ccccc32)ccc1Cl (centres unmarked) [Chlorthalidone]
  Overall weighted mean CLR: 62.3 mL/min

## C[C@H](Cn1cnc2c(N)ncnc21)OCP(=O)(O)O [Tenofovir]
  Overall weighted mean CLR: 220.0 mL/min

## C[C@H]1O[C@@H](O[C@H]2[C@@H](O)C[C@H](O[C@H]3[C@@H](O)C[C@H](O[C@H]4CC[C@@]5(C)[C@H](CC[C@@H]6[C@@H]5C[C@@H](O)[C@]5(C)[C@@H](C7=CC(=O)OC7)CC[C@]65O)C4)O[C@@H]3C)O[C@@H]2C)C[C@H](O)[C@@H]1O [Digoxin]
  Overall weighted mean CLR: 151.1 mL/min

## CO/N=C(\C(=O)N[C@@H]1C(=O)N2C(C(=O)[O-])=C(C[n+]3cccc4c3CCC4)CS[C@H]12)c1csc(N)n1 [Cefpirome]
  Overall weighted mean CLR: 97.5 mL/min

## Clc1ccc2nsnc2c1NC1=NCCN1 [Tizanidine]
  Overall weighted mean CLR: 66.2 mL/min

## CO[C@@]1(NC(=O)CSCC#N)C(=O)N2C(C(=O)O)=C(CSc3nnnn3C)CS[C@@H]21 [Cefmetazole]
  Overall weighted mean CLR: 110.2 mL/min

## COc1c(N2CCNC(C)C2)c(F)cc2c(=O)c(C(=O)O)cn(C3CC3)c12 (centres unmarked) [Gatifloxacin]
  Overall weighted mean CLR: 168.4 mL/min

## CC1COc2c(N3CCN(C)CC3)c(F)cc3c(=O)c(C(=O)O)cn1c23 (centres unmarked) [Ofloxacin]
  Overall weighted mean CLR: 184.4 mL/min

## Oc1ccc(/C=C/c2cc(O)cc(O)c2)cc1 [Resveratrol]
  Overall weighted mean CLR: 16.6 mL/min

## CCOc1ccc2ccccc2c1C(=O)N[C@@H]1C(=O)N2[C@@H]1SC(C)(C)[C@@H]2C(=O)O [Nafcillin]
  Overall weighted mean CLR: 138.4 mL/min

## CN(C)CCc1c[nH]c2ccc(CS(=O)(=O)N3CCCC3)cc12 [Almotriptan]
  Overall weighted mean CLR: 399.5 mL/min

## Nc1ncnc2c1ncn2CCOCP(=O)(O)O [Adefovir]
  Overall weighted mean CLR: 200.4 mL/min

## NC(=O)c1cnccn1 [Pyrazinamide]
  Overall weighted mean CLR: 2.0 mL/min

## CC(C)NCC(O)COc1cccc2[nH]ccc12 (centres unmarked) [Pindolol]
  Overall weighted mean CLR: 210.9 mL/min

## CSc1ccc(C(=O)c2[nH]c(=O)[nH]c2C)cc1 [Enoximone]
  Overall weighted mean CLR: 3.4 mL/min

## CO/N=C1\CN(c2nc3c(cc2F)c(=O)c(C(=O)O)cn3C2CC2)CC1CN (centres unmarked) [Gemifloxacin]
  Overall weighted mean CLR: 176.8 mL/min

## C[C@@H](O)[C@H]1C(=O)N2C(C(=O)O)=C(S[C@H]3C[C@@H](C(=O)N4CC[C@H](NC(=O)CNC(=N)N)C4)N(C)C3)[C@H](C)[C@H]12 [Tomopenem]
  Overall weighted mean CLR: 77.7 mL/min

## CO[C@@]1(NC(=O)C(C(=O)O)c2ccsc2)C(=O)N2[C@@H](C(=O)O)C(C)(C)S[C@@H]21 (some centres unmarked) [Temocillin]
  Overall weighted mean CLR: 39.8 mL/min

## CN[C@@H]1CCc2[nH]c3ccc(C(N)=O)cc3c2C1 [Frovatriptan]
  Overall weighted mean CLR: 73.5 mL/min

## CC1(C)S[C@@H]2[C@H](NC(=O)[C@H](NC(=O)N3CCNC3=O)c3ccccc3)C(=O)N2[C@H]1C(=O)O [Azlocillin]
  Overall weighted mean CLR: 83.3 mL/min

## c1cnc2cc3c(cc2n1)[C@@H]1CNC[C@H]3C1 [Varenicline]
  Overall weighted mean CLR: 118.6 mL/min

## CCCC(CCC)C(=O)O [Valproic Acid]
  Overall weighted mean CLR: 0.2 mL/min

## COc1cc(Cc2cnc(N)nc2N)cc(OC)c1OC [Trimethoprim]
  Overall weighted mean CLR: 78.2 mL/min

## CCN(CC)CCNC(=O)c1ccc(NC(C)=O)cc1 [Acecainide]
  Overall weighted mean CLR: 226.7 mL/min

## CO/N=C(\C(=O)N[C@@H]1C(=O)N2C(C(=O)O)=C(COC(C)=O)CS[C@H]12)c1csc(N)n1 [Cefotaxime]
  Overall weighted mean CLR: 119.7 mL/min

## CN1CCN(c2c(F)cc3c(=O)c(C(=O)O)cn4c3c2SCC4)CC1 [Rufloxacin]
  Overall weighted mean CLR: 16.8 mL/min

## CN(C)CCn1nnnc1SCC1=C(C(=O)O)N2C(=O)[C@@H](NC(=O)Cc3csc(N)n3)[C@H]2SC1 [Cefotiam]
  Overall weighted mean CLR: 193.7 mL/min

## O=C(O)C1=C(CSc2nnnn2CS(=O)(=O)O)CS[C@@H]2[C@H](NC(=O)[C@H](O)c3ccccc3)C(=O)N12 [Cefonicid]
  Overall weighted mean CLR: 18.3 mL/min

## C[C@H]1NCc2cc(-c3ccc4c(=O)c(C(=O)O)cn(C5CC5)c4c3OC(F)F)ccc21 [Garenoxacin]
  Overall weighted mean CLR: 41.8 mL/min

## CC12CC3CC(C)(C1)CC(N)(C3)C2 [Memantine]
  Overall weighted mean CLR: 117.1 mL/min

## CO[C@@]1(NC(=O)C(C(=O)O)c2ccc(O)cc2)C(=O)N2C(C(=O)O)=C(CSc3nnnn3C)CO[C@@H]21 (some centres unmarked) [Moxalactam]
  Overall weighted mean CLR: 69.5 mL/min

## CC(C)(O/N=C(\C(=O)N[C@@H]1C(=O)N2C(C(=O)[O-])=C(C[n+]3ccccc3)CS[C@H]12)c1csc(N)n1)C(=O)O [Ceftazidime]
  Overall weighted mean CLR: 98.0 mL/min

## CCN(CC)CCCC(C)Nc1ccnc2cc(Cl)ccc12 (centres unmarked) [Chloroquine]
  Overall weighted mean CLR: 167.2 mL/min

## Cc1cccc(C)c1NC(=O)CC12CCCN1CCC2 [Pilsicainide]
  Overall weighted mean CLR: 234.7 mL/min

## COc1cc2ncnc(Nc3ccc(F)c(Cl)c3)c2cc1OCCCN1CCOCC1 [Gefitinib]
  Overall weighted mean CLR: 8.6 mL/min

## CCCc1nc(C(C)(C)O)c(C(=O)O)n1Cc1ccc(-c2ccccc2-c2nnn[nH]2)cc1 [Olmesartan]
  Overall weighted mean CLR: 11.4 mL/min

## CC(C)(C)NCC(O)c1ccc(O)c(CO)c1 (centres unmarked) [Salbutamol]
  Overall weighted mean CLR: 289.9 mL/min

## CC(C)NCC(O)COc1ccc(COCCOC(C)C)cc1 (centres unmarked) [Bisoprolol]
  Overall weighted mean CLR: 157.0 mL/min

## CCC(CC)O[C@@H]1C=C(C(=O)O)C[C@H](N)[C@H]1NC(C)=O [Oseltamivir carboxylate]
  Overall weighted mean CLR: 231.7 mL/min

## CCN1CCC[C@H]1CNC(=O)c1c(OC)ccc(Br)c1OC [Remoxipride]
  Overall weighted mean CLR: 35.6 mL/min

## Nc1nc2c(ncn2CCC(CO)CO)c(=O)[nH]1 [Penciclovir]
  Overall weighted mean CLR: 439.6 mL/min

## CC(C)c1nc(N(C)S(C)(=O)=O)nc(-c2ccc(F)cc2)c1/C=C/[C@@H](O)C[C@@H](O)CC(=O)O [Rosuvastatin]
  Overall weighted mean CLR: 212.5 mL/min

## CC[C@H](C)C(=O)O[C@H]1C[C@H](O)C=C2C=C[C@H](C)[C@H](CC[C@@H](O)C[C@@H](O)CC(=O)O)[C@H]21 [Pravastatin]
  Overall weighted mean CLR: 414.6 mL/min

## COc1ccc([C@@H]2Sc3ccccc3N(CCN(C)C)C(=O)[C@@H]2OC(C)=O)cc1 [Diltiazem]
  Overall weighted mean CLR: 48.0 mL/min

## C=CC1=C(C(=O)O)N2C(=O)[C@@H](NC(=O)/C(=N\OCC(=O)O)c3csc(N)n3)[C@H]2SC1 [Cefixime]
  Overall weighted mean CLR: 32.5 mL/min

## O=S(=O)(O)CCS [Mesna]
  Overall weighted mean CLR: 265.8 mL/min

## CN1CCN(C(=O)OC2c3nccnc3C(=O)N2c2ccc(Cl)cn2)CC1 (centres unmarked) [Zopiclone]
  Overall weighted mean CLR: 13.0 mL/min

## C[C@H]1COc2c(N3CCN(C)CC3)c(F)cc3c(=O)c(C(=O)O)cn1c23 [Levofloxacin]
  Overall weighted mean CLR: 116.9 mL/min

## O=C(NC[C@H]1CN(c2ccc(N3CCOCC3=O)cc2)C(=O)O1)c1ccc(Cl)s1 [Rivaroxaban]
  Overall weighted mean CLR: 49.8 mL/min

## CCCn1c(=O)[nH]c(=O)c2[nH]cnc21 [Enprofylline]
  Overall weighted mean CLR: 272.6 mL/min

## CO[C@@]1(NC(=O)C2SC(=C(C(N)=O)C(=O)O)S2)C(=O)N2C(C(=O)O)=C(CSc3nnnn3C)CS[C@@H]21 (some centres unmarked) [Cefotetan]
  Overall weighted mean CLR: 23.9 mL/min

## CC1(C)S[C@@H]2[C@H](NC(=O)[C@H](N)c3ccc(O)cc3)C(=O)N2[C@H]1C(=O)O [Amoxicillin]
  Overall weighted mean CLR: 167.0 mL/min

## Cc1nnc(C(=O)NC(C)(C)c2nc(C(=O)NCc3ccc(F)cc3)c(O)c(=O)n2C)o1 [Raltegravir]
  Overall weighted mean CLR: 55.0 mL/min

## CO[C@H]1/C=C/O[C@@]2(C)Oc3c(C)c(O)c4c(O)c(c(/C=N/N5CCN(C)CC5)c(O)c4c3C2=O)NC(=O)/C(C)=C\C=C\[C@H](C)[C@H](O)[C@@H](C)[C@@H](O)[C@@H](C)[C@H](OC(C)=O)[C@@H]1C [Rifampin]
  Overall weighted mean CLR: 18.7 mL/min

## CC1CN(c2cc3c(cc2F)c(=O)c(C(=O)O)cn3-c2ccc(F)cc2F)CCN1 (centres unmarked) [Temafloxacin]
  Overall weighted mean CLR: 122.5 mL/min

## Cc1cn([C@@H]2C[C@@H](O)[C@H](CO)O2)c(=O)[nH]c1=O [Telbivudine]
  Overall weighted mean CLR: 116.7 mL/min
